Experimental data: patent publication US20260200926A1, “TREM2 MODULATORS” (Muna Therapeutics ApS, priority 2022, published 2026)

How the values were obtained:
[1] = tested on: TREM2 regulated genes CXCL10, CCL2, CST7, and TMEM119; experiment: Pharmacodynamics in hTREM2 knock-in mice: brain mRNA expression of TREM2 regulated genes by RT-qPCR; assay type: in vivo, humanized TREM2 knockin (hTREM2 KI) mice, C57BL/6 background; details: hTREM2 KI mice, oral gavage 50 mg/kg twice a day with a 10-hour interval, brains after 24 hours, RT-qPCR relative to GAPDH, normalized to vehicle
Experimental: Humanized TREM2 knockin (hTREM2 KI) mice were used for pharmacodynamics and pharmacokinetics studies. hTREM2 mice were generated by replacement of the mouse TREM2 gene that encodes the full-length protein by the human TREM2 gene in a C57BL/6 mouse strain background. Groups of 10 animals 8-10-week-old hTREM2 mice were treated via oral gavage administration with a TREM2 agonist compound at 50 mg/kg twice a day with a 10-hour interval. After 24 hours, mice were sacrificed and brains were isolated for RNA extraction used for reverse transcription to create complementary DNAs (cDNAs). The relative mRNA expression level of known TREM2 regulated genes were measured by quantitative reverse transcription polymerase chain reaction (RT-qPCR) relative to Glyceraldehyde-3-phosphate dehydrogenase (GAPDH) reference housekeeping gene. Expression of TREM2 regulated genes CXCL10, CCL2, CST7, and TMEM119 were measured as pharmacodynamic biomarkers after TREM2 agonist treatment normalized to vehicle control. These genes are known as microglial activation biomarkers and have previously been reported to respond to TREM2 antibody and small molecule agonist treatment in vivo.
Statistical Analyses. All graphs represent the mean of all samples in each group±SEM.
GraphPad Prism software was used to perform statistical analyses. P<0.05 was considered significant difference between vehicle and TREM2 small molecule treatment determined by T-test.
The relative expression levels for Compound 89A and vehicle were measured.

Human TREM2 = biological target: T1, Human TREM2 (Homo sapiens, UniProt Q9NZC2); experiment: Human TREM2 activity: cellular phosphorylation of Syk (AlphaLISA SureFire Ultra p-SYK) in HEK293/DAP12+TREM2 stable cell line; assay type: cell-based; details: for Emax: HEK293, maximal response relative to reference agonist example 1B (remaining examples), read-out: Emax; for EC50: phospho-Syk AlphaLISA signal, HEK293/DAP12+TREM2 cells, concentration giving 50% of maximal response, read-out: EC50
T1 construct: expressed in transfected cells
Method in brief: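 The read-out was p-Syk (Tyr525/526), measured by AlphaLISA in lysates of a stable HEK293/DAP12+TREM2 clone. Cells (10,000/well, plated the day before) received compound for 30 min at 37 °C. Dosing used 8 points in quadruplicate, top 100 μM with 1:6 dilution, 0.5% final DMSO.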

T1 sequence (Q9NZC2 19-230): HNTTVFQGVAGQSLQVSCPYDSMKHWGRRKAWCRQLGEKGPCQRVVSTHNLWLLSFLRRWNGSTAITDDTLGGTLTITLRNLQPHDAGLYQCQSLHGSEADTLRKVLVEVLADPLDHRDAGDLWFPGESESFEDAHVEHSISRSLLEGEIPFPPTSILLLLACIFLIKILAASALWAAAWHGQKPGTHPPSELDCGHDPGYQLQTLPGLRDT
T1 sequence (O43914 22-113 partner): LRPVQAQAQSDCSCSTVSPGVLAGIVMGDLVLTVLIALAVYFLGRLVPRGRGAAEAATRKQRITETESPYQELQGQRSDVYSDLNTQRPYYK

SMILES	brain expression level of CCL2 as compared to vehicle control [1] [fold]	brain expression level of CST7 as compared to vehicle control [1] [fold]	brain expression level of CXCL10 as compared to vehicle control [1]	brain expression level of TMEM119 as compared to vehicle control [1] [fold]	Emax (Human TREM2) [%]	EC50 (Human TREM2) [µM]
Cc1nc2c(-c3ccc(Cl)cc3F)nc(N3C[C@@H](c4cnn(C)c4)OC(C)(C)C3)nc2c(=O)n1C (single isomer, unassigned) [Example 89A]	1.7	3.25	about 2.5 fold	1.8	75 to 110	0.01 to 0.1
Cc1nc2c(-c3ccc(Cl)cc3F)cc(N3CCOC(c4cnn(C)c4)C3)cc2c(=O)n1C (stereo not shown) [Example 106, 8-(4-chloro-2-fluorophenyl)-2,3-dimethyl-6-(2-(1-methyl-1H-pyrazol-4-yl)morpholino)quinazolin-4 (3H)-one]	–	–	–	–	< 75	0.1 to 1
Cc1nc2c(C34CC(C(F)(F)F)(C3)C4)nc(N3CCO[C@@H](c4cnn(C)c4)C3)nc2c(=O)n1C [Example 113, (S)-2,3-dimethyl-6-(2-(1-methyl-1H-pyrazol-4-yl)morpholino)-8-(3-(trifluoromethyl)bicyclo[1.1.1]pentan-1-yl)pyrimido[5,4-d]pyrimidin-4 (3H)-one]	–	–	–	–	75 to 110	0.001 to 0.01
Cc1cc2c(-c3ccc(Cl)cc3F)nc(N3CCOC(c4cnn(C)c4)C3)nc2c(=O)n1C (stereo not shown) [Example 114, 4-(4-chloro-2-fluorophenyl)-6,7-dimethyl-2-(2-(1-methyl-1H-pyrazol-4-yl)morpholino)pyrido[3,4-d]pyrimidin-8 (7H)-one]	–	–	–	–	75 to 110	0.001 to 0.01
Cc1nc2c(-c3ccc(Cl)cc3F)nc(N3CC(c4cnn(C)c4)OC(F)(F)C3)nc2c(=O)n1C (stereo not shown) [Example 115, 8-(4-chloro-2-fluorophenyl)-6-(2,2-difluoro-6-(1-methyl-1H-pyrazol-4-yl)morpholino)-2,3-dimethylpyrimido[5,4-d]pyrimidin-4 (3H)-one]	–	–	–	–	75 to 110	0.001 to 0.01
Cc1nc2c(-c3ccc(Cl)cc3F)nc(N3CC(c4cnn(C)c4)OC4(CC4)C3)c(F)c2c(=O)n1C (stereo not shown) [Example 157, 8-(4-chloro-2-fluorophenyl)-5-fluoro-2,3-dimethyl-6-(5-(1-methyl-1H-pyrazol-4-yl)-4-oxa-7-azaspiro[2.5]octan-7-yl)pyrido[3,4-d]pyrimidin-4 (3H)-one]	–	–	–	–	< 75	0.1 to 1
Cn1cc(C2CN(c3nc(-c4ccc(F)cc4F)c4nc(C(F)(F)F)n(C)c(=O)c4c3F)CC3(CC3)O2)cn1 (stereo not shown) [Example 158, 8-(2,4-difluorophenyl)-5-fluoro-3-methyl-6-(5-(1-methyl-1H-pyrazol-4-yl)-4-oxa-7-azaspiro[2.5]octan-7-yl)-2-(trifluoromethyl)pyrido[3,4-d]pyrimidin-4 (3H)-one]	–	–	–	–	< 75	0.1 to 1
Cn1c(C(F)(F)F)nc2c(-c3ccc(F)cc3F)nc(C3CCOC(c4cnn(C5CC5)c4)C3)c(F)c2c1=O (stereo not shown) [Example 167, 6-(2-(1-cyclopropyl-1H-pyrazol-4-yl)tetrahydro-2H-pyran-4-yl)-8-(2,4-difluorophenyl)-5-fluoro-3-methyl-2-(trifluoromethyl) pyrido[3,4-d]pyrimidin-4 (3H)-one]	–	–	–	–	< 75	0.1 to 1
Cc1cc([C@H]2C[C@@H](c3cc4c(=O)n(C)c(C)nc4c(-c4ccc(F)cc4F)n3)C[C@@H](C)O2)ccn1 [Example 185]	–	–	–	–	75 to 110	0.001 to 0.01
Cn1cc(C2CN(c3nc(-c4ccc(Cl)cc4F)c4ncn(C)c(=O)c4n3)CCO2)cn1 (stereo not shown) [Example 187, 8-(4-chloro-2-fluorophenyl)-3-methyl-6-(2-(1-methyl-1H-pyrazol-4-yl)morpholino)pyrimido[5,4-d]pyrimidin-4 (3H)-one]	–	–	–	–	< 75	0.01 to 0.1
Cc1nc2c(-c3ccc(Cl)cc3F)nc(N3CCn4nc(C(F)(F)F)nc4C3)nc2c(=O)n1C [Example 188, 8-(4-chloro-2-fluorophenyl)-2,3-dimethyl-6-(2-(trifluoromethyl)-5,6-dihydro-[1,2,4]triazolo[1,5-a]pyrazin-7 (8H)-yl)pyrimido[5,4-d]pyrimidin-4 (3H)-one]	–	–	–	–	< 75	0.01 to 0.1
Cc1nc2c(-c3ccc(Cl)cc3C#N)nc(N3CC(C)OC(c4cnn(C5CC5)c4)C3)cc2c(=O)n1C (stereo not shown) [Example 198, 5-chloro-2-(6-(2-(1-cyclopropyl-1H-pyrazol-4-yl)-6-methylmorpholino)-2,3-dimethyl-4-oxo-3,4-dihydropyrido[3,4-d]pyrimidin-8-yl)benzonitrile]	–	–	–	–	< 75	> 1
